Consider 64 compounds from patent publication US20060264460A1 (Wyeth, priority 2005, published 2006).

T1 sequence (P41279 30-398): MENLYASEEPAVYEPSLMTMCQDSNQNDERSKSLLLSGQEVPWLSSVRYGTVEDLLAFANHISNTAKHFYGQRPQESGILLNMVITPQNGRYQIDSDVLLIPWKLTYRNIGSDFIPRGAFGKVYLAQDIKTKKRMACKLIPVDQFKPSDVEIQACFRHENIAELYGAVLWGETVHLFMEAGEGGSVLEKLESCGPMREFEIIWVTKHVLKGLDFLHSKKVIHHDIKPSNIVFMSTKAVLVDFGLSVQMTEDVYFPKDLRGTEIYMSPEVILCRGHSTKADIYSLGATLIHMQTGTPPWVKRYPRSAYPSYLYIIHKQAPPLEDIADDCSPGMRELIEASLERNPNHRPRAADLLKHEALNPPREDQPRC

This experiment has as its target T1, human Cot/Tpl2 kinase (Homo sapiens, UniProt P41279).
T1 construct: human Cot/Tpl2 kinase construct encoding residues 30-398; 6His (N); made in house; host or cells: Sf9 insect cells, baculovirus system (BD Biosciences)
Briefly: Tpl2/Cot kinase assay: GST-MEK1 phosphorylation detected by ELISA (DELFIA Eu). To be noted: Tpl2/Cot kinase, GST-MEK1 substrate, 50 uM ATP. It is filed as biochemical. In outline:
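His-tagged human Tpl2 from Sf9 cells, Ni-affinity and size-exclusion purified (monomer). 0.4 nM Tpl2 with 35 nM GST-MEK1, 50 uM ATP, MOPS pH 7.2, 1% DMSO, 1 h at 30° C; EDTA stop. MEK1 Ser217/221 phosphorylation detected by anti-phospho-MEK1 and Eu-labelled secondary ELISA; IC50 fitted.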
As to `CCN(Cc1cn(CC(=O)N(C)C)nn1)c1cc(Br)c2ncc(C#N)c(Nc3ccc(F)c(Cl)c3)c2c1` [Example 835], 9.1 nM corresponded to half-maximal inhibition (IC50). With `Cc1cc(Cn2cc(CNc3cc(Cl)c4ncc(C#N)c(Nc5ccc(F)c(Cl)c5)c4c3)nn2)ccn1` [Example 837] the figure was 11 nM.

As to `N#Cc1cnc2c(Br)cc(NCc3cn(C4CN5CCC4CC5)nn3)cc2c1Nc1ccc(F)c(Cl)c1` (stereo not shown) [Example 838], the IC50 stood at 10 nM.

For `Cc1ncccc1Cn1cc(CNc2cc(Cl)c3ncc(C#N)c(Nc4ccc(F)c(Cl)c4)c3c2)nn1` [Example 840], the IC50 was found to be 10 nM.

Consider `N#Cc1cnc2c(Cl)cc(NCc3cn(CCCN4CCC(F)(F)CC4)nn3)cc2c1Nc1ccc(F)c(Cl)c1` [Example 841], for which it took 29 nM to reach half-maximal inhibition (IC50). Take `Cc1c(Cn2cc(CNc3cc(Cl)c4ncc(C#N)c(Nc5ccc(F)c(Cl)c5)c4c3)nn2)ccc[n+]1[O-]` [Example 842]: inhibition was half-maximal at 0.9 nM (IC50). The same measure for `CC(=O)N(CCNc1cc(Cl)c2ncc(C#N)c(Nc3ccc(F)c(Cl)c3)c2c1)Cc1cccnc1` [Example 843]: 58 nM; for `CC(=O)N(CCNc1cc(Cl)c2ncc(C#N)c(Nc3ccc(F)c(Cl)c3)c2c1)Cc1ccncc1` [Example 844]: 60 nM.

Turning to `N#Cc1cnc2c(Cl)cc(NCc3ccncc3)cc2c1Nc1ccc(F)c(Cl)c1` [Example 845], half-maximal inhibition (IC50) was put at 22 nM. The same measure for `CC(=O)N(CCNc1cc(Cl)c2ncc(C#N)c(Nc3ccc(F)c(Cl)c3)c2c1)Cc1ccccn1` [Example 846]: 170 nM; for `CC(C)Cn1cc(CNc2cc(Cl)c3ncc(C#N)c(Nc4ccc(F)c(Cl)c4)c3c2)nn1` [Example 847]: 170 nM.

Consider `CCN(CC1CCN(C(=O)c2cccnc2)CC1)c1cc(Cl)c2ncc(C#N)c(Nc3ccc(F)c(Cl)c3)c2c1` [Example 848], for which the IC50 stood at 380 nM.

In the case of `CN1CCC(CNc2cc(Cl)c3ncc(C#N)c(Nc4ccc(F)c(Cl)c4)c3c2)CC1` [Example 849], half-maximal inhibition (IC50) was put at 1910 nM.

`N#Cc1cnc2c(Cl)cc(NCC3CCN(C(=O)c4cccnc4)CC3)cc2c1Nc1ccc(F)c(Cl)c1` [Example 850] came in with a concentration for half-maximal inhibition (IC50) of 130 nM. Take `CN(C)C(=O)Cn1cc(CN(C)c2cc(Cl)c3ncc(C#N)c(Nc4ccc(F)c(Cl)c4)c3c2)nn1` [Example 851]: the IC50 turned out to be 150 nM.

As for `N#Cc1cnc2c(Cl)cc(NCc3cn(CCCN4C(=O)c5ccccc5C4=O)nn3)cc2c1Nc1ccc(F)c(Cl)c1` [Example 852], the IC50 came out at 120 nM. The same measure for `CS(=O)(=O)NCCNc1cc(Cl)c2ncc(C#N)c(Nc3ccc(F)c(Cl)c3)c2c1` [Example 853]: 880 nM.

As for `N#Cc1cnc2c(Cl)cc(NCCNS(=O)(=O)c3ccccc3)cc2c1Nc1ccc(F)c(Cl)c1` [Example 854], half-maximal inhibition (IC50) required 1960 nM. With `N#Cc1cnc2c(Cl)cc(NCCNS(=O)(=O)c3cccnc3)cc2c1Nc1ccc(F)c(Cl)c1` [Example 855] the figure was greater than 3000 nM; with `N#Cc1cnc2c(Cl)cc(NCCNS(=O)(=O)c3ccccn3)cc2c1Nc1ccc(F)c(Cl)c1` [Example 856], 820 nM. With `N#Cc1cnc2c(Cl)cc(NCCNS(=O)(=O)Cc3ccccn3)cc2c1Nc1ccc(F)c(Cl)c1` [Example 857] the figure was 670 nM; with `N#Cc1ccc(S(=O)(=O)NCCNc2cc(Cl)c3ncc(C#N)c(Nc4ccc(F)c(Cl)c4)c3c2)cc1` [Example 858], 790 nM. With `N#Cc1cnc2c(Cl)cc(NCCNC(=O)c3ccccn3)cc2c1Nc1ccc(F)c(Cl)c1` [Example 859] the figure was greater than 3000 nM; with `N#Cc1cnc2c(Cl)cc(NCCNC(=O)c3cccnc3)cc2c1Nc1ccc(F)c(Cl)c1` [Example 860], greater than 3000 nM. On to `N#Cc1cnc2c(Cl)cc(NCCNC(=O)Cc3ccccn3)cc2c1Nc1ccc(F)c(Cl)c1` [Example 861], for which the IC50 is greater than 3000 nM.

For `N#Cc1cnc2c(Cl)cc(NCCNC(=O)Cc3cccnc3)cc2c1Nc1ccc(F)c(Cl)c1` [Example 862], the IC50 is greater than 3000 nM.

`N#Cc1cnc2c(Cl)cc(NCCNC(=O)Cc3ccncc3)cc2c1Nc1ccc(F)c(Cl)c1` [Example 863] had an IC50 of 1040 nM. The same measure for `N#Cc1cnc2c(Cl)cc(NCCNC(=O)c3cncnc3)cc2c1Nc1ccc(F)c(Cl)c1` [Example 864]: 650 nM.

Regarding `CC(=O)N1CCC(CN(C(C)=O)c2cc(Cl)c3ncc(C#N)c(Nc4ccc(F)c(Cl)c4)c3c2)CC1` [Example 865], the IC50 was 380 nM. On to `CC(=O)N1CCC(CNc2cc(Cl)c3ncc(C#N)c(Nc4ccc(F)c(Cl)c4)c3c2)CC1` [Example 866], for which the IC50 came out at 260 nM. The same measure for `CCN1CCCC(Nc2cc(Cl)c3ncc(C#N)c(Nc4ccc(F)c(Cl)c4)c3c2)C1` (stereo not shown) [Example 868]: 1190 nM; for `N#Cc1cnc2c(Cl)cc(NC3CCN(Cc4cccnc4)CC3)cc2c1Nc1ccc(F)c(Cl)c1` [Example 869]: 820 nM; for `CCN1CCCCC1CNc1cc(Cl)c2ncc(C#N)c(Nc3ccc(F)c(Cl)c3)c2c1` (stereo not shown) [Example 870]: 1970 nM. The same measure for `CC(=O)N1CCC(Nc2cc(Cl)c3ncc(C#N)c(Nc4ccc(F)c(Cl)c4)c3c2)C1` (stereo not shown) [Example 871]: 150 nM; for `CC(=O)N1CCCC(Nc2cc(Cl)c3ncc(C#N)c(Nc4ccc(F)c(Cl)c4)c3c2)C1` (stereo not shown) [Example 872]: 96 nM. As for `CC(=O)N1CCC(Nc2cc(Cl)c3ncc(C#N)c(Nc4ccc(F)c(Cl)c4)c3c2)CC1` [Example 873], 660 nM corresponded to half-maximal inhibition (IC50). The same measure for `CC(=O)N1CCCC(CNc2cc(Cl)c3ncc(C#N)c(Nc4ccc(F)c(Cl)c4)c3c2)C1` (stereo not shown) [Example 874]: 610 nM. `CC(=O)N1CCCCC1CNc1cc(Cl)c2ncc(C#N)c(Nc3ccc(F)c(Cl)c3)c2c1` (stereo not shown) [Example 875] showed an IC50 of 620 nM. With `N#Cc1cnc2c(Cl)cc(NCc3cn(CC(=O)NC4CC4)nn3)cc2c1Nc1ccc(F)c(Cl)c1` [Example 876] the figure was 1.3 nM. The same measure for `CC(C)N1CCCC1Cn1cc(CNc2cc(Br)c3ncc(C#N)c(Nc4ccc(F)c(Cl)c4)c3c2)nn1` (stereo not shown) [Example 878]: 110 nM; for `N#Cc1cnc2c(Cl)cc(NCc3cn(Cc4cncnc4)nn3)cc2c1Nc1ccc(F)c(Cl)c1` [Example 879]: 1.1 nM; for `N#Cc1cnc2c(Br)cc(NCc3cn(Cc4cncnc4)nn3)cc2c1Nc1ccc(F)c(Cl)c1` [Example 880]: 2.5 nM.

`N#Cc1cnc2c(Cl)cc(NCc3cn(Cc4cccc(C(F)(F)F)n4)nn3)cc2c1Nc1ccc(F)c(Cl)c1` [Example 882] displayed an IC50 of 270 nM. With `N#Cc1cnc2c(Cl)cc(NCc3cn(Cc4ccnc(C(F)(F)F)c4)nn3)cc2c1Nc1ccc(F)c(Cl)c1` [Example 883] the figure was 80 nM; with `CCOC(=O)C1CC1CNc1cc(Cl)c2ncc(C#N)c(Nc3ccc(F)c(Cl)c3)c2c1` (stereo not shown) [Example 884], 660 nM. The same measure for `N#Cc1cnc2c(Cl)cc(NCC(=O)N3CCCCCC3)cc2c1Nc1ccc(F)c(Cl)c1` [Example 885]: 390 nM. `N#Cc1cnc2c(Cl)cc(NCC3CC3C(=O)O)cc2c1Nc1ccc(F)c(Cl)c1` (stereo not shown) [Example 886] returned an IC50 of 220 nM. With `CC(C)(C)OC(=O)N1CCC[C@@H]1Cn1cc(CNc2cc(Cl)c3ncc(C#N)c(Nc4ccc(F)c(Cl)c4)c3c2)nn1` [Example 887] the figure was 160 nM; with `CC(C)(C)OC(=O)N1CCC[C@H]1Cn1cc(CNc2cc(Cl)c3ncc(C#N)c(Nc4ccc(F)c(Cl)c4)c3c2)nn1` [Example 888], 200 nM.

On to `N#Cc1cnc2c(Cl)cc(NCc3cn(C[C@H]4CCCN4)nn3)cc2c1Nc1ccc(F)c(Cl)c1` [Example 889], for which the IC50 was found to be 8.4 nM.

On to `N#Cc1cnc2c(Cl)cc(NCc3cn(C[C@@H]4CCCN4)nn3)cc2c1Nc1ccc(F)c(Cl)c1` [Example 890], for which the IC50 amounted to 7.6 nM. With `CN1CCC[C@@H]1Cn1cc(CNc2cc(Cl)c3ncc(C#N)c(Nc4ccc(F)c(Cl)c4)c3c2)nn1` [Example 891] the figure was 33 nM; with `CCN1CCC[C@@H]1Cn1cc(CNc2cc(Cl)c3ncc(C#N)c(Nc4ccc(F)c(Cl)c4)c3c2)nn1` [Example 892], 30 nM; with `CC(C)N1CCC[C@@H]1Cn1cc(CNc2cc(Cl)c3ncc(C#N)c(Nc4ccc(F)c(Cl)c4)c3c2)nn1` [Example 893], 46 nM. The same measure for `CN1CCC[C@H]1Cn1cc(CNc2cc(Cl)c3ncc(C#N)c(Nc4ccc(F)c(Cl)c4)c3c2)nn1` [Example 894]: 1.8 nM; for `CCN1CCC[C@H]1Cn1cc(CNc2cc(Cl)c3ncc(C#N)c(Nc4ccc(F)c(Cl)c4)c3c2)nn1` [Example 895]: 10 nM; for `CC(C)N1CCC[C@H]1Cn1cc(CNc2cc(Cl)c3ncc(C#N)c(Nc4ccc(F)c(Cl)c4)c3c2)nn1` [Example 896]: 34 nM.

`CN(C)C(=O)N1CCC[C@@H]1Cn1cc(CNc2cc(Cl)c3ncc(C#N)c(Nc4ccc(F)c(Cl)c4)c3c2)nn1` [Example 897] showed an IC50 of 110 nM. The compound `CC(=O)N1CCC[C@@H]1Cn1cc(CNc2cc(Cl)c3ncc(C#N)c(Nc4ccc(F)c(Cl)c4)c3c2)nn1` [Example 898] registered a half-inhibitory concentration (IC50) of 0.2 nM.

`CCNC(=O)N1CCC[C@@H]1Cn1cc(CNc2cc(Cl)c3ncc(C#N)c(Nc4ccc(F)c(Cl)c4)c3c2)nn1` [Example 899] displayed an IC50 of 0.6 nM. The same measure for `CN(C)C(=O)N1CCC[C@H]1Cn1cc(CNc2cc(Cl)c3ncc(C#N)c(Nc4ccc(F)c(Cl)c4)c3c2)nn1` [Example 900]: 0.5 nM. The same measure for `CC(=O)N1CCC[C@H]1Cn1cc(CNc2cc(Cl)c3ncc(C#N)c(Nc4ccc(F)c(Cl)c4)c3c2)nn1` [Example 901]: 1 nM. `CCNC(=O)N1CCC[C@H]1Cn1cc(CNc2cc(Cl)c3ncc(C#N)c(Nc4ccc(F)c(Cl)c4)c3c2)nn1` [Example 902] came in with an IC50 of 0.5 nM.

For `N#Cc1cnc2c(Cl)cc(NCC3CCCN(C(=O)CN4CCCCCC4)C3)cc2c1Nc1ccc(F)c(Cl)c1` (stereo not shown) [Example 903], half-maximal inhibition (IC50) required 620 nM.
